Laboratory results from US5320825A, “Serotonin reuptake inhibitors for S.P.E.C.T. imaging” (Trustees of the University of Pennsylvania, priority 1991, dated 1994).
Where two headings read alike, the source gives them in different places.

Columns and labels:
rat brain sections = conditions: ex vivo autoradiography, 2 hr. post i.v. injection, paroxetine 10 mg/Kg, i.p.
[1] = tested on: prefrontal cortex membrane of rat brain; conditions: in vitro
[2] = for Biodistribution, Blood / Biodistribution, Brain / Biodistribution, Heart / Biodistribution, Kidney / Biodistribution, Liver / Biodistribution, Lung / Biodistribution, Muscle / Biodistribution, Skin / Biodistribution, Spleen / Biodistribution, Thyroid: rat, iv
[3] = target: norepinephrine (NE) reuptake system; conditions: rat synaptosomes; read-out: Inhibition of monoamine uptake, NE (Ki); cited from earlier work
[4] = target: dopamine (DA) reuptake system; conditions: read-out: Inhibition of monoamine uptake, DA (Ki); cited from earlier work
[5] = target: serotonin reuptake system (5-HT); conditions: read-out: Inhibition of monoamine uptake, 5-HT (Ki); cited from earlier work
[6] = target: norepinephrine reuptake sites (Rattus norvegicus, UniProt Q63380); assay: in vitro competitive binding assay, norepinephrine uptake sites, [3H]-Nisoxetine; conditions: rat brain tissue preparation
From the text: (§1) The affinity of the compounds prepared in Examples 1-4 to serotonin and norepinephrine uptake sites was studied using in vitro competitive binding assays.

serotonin reuptake sites = target: T1, serotonin reuptake sites (Rattus norvegicus, UniProt P31652); assay: in vitro competitive binding assay, serotonin uptake sites, [3H]-Paroxetine
T1 construct: in rat brain tissue preparation; from tissue
From the text: as §1

[7] = Biodistribution of compound 7 in rats after an iv injection; type: in vivo; conditions: rat
Protocol: The biodistribution of [R]-(-)-N-methyl-3-phenyl-3-(4-^123 I-2-methylphenoxy)propylamine hydrochloride (compound 7) in rats, after intravenous injection, was analyzed. Results are presented in Table 4 and indicate that moderate brain uptake (0.64-0.84% dose/organ) is found consistently throughout the two hour period.

[8] = n = 3, 2nd time column (time not given)
[9] = n = 3, 4th time column (time not given)

norepinephrine reuptake sites, sequence (Q63380 1-617): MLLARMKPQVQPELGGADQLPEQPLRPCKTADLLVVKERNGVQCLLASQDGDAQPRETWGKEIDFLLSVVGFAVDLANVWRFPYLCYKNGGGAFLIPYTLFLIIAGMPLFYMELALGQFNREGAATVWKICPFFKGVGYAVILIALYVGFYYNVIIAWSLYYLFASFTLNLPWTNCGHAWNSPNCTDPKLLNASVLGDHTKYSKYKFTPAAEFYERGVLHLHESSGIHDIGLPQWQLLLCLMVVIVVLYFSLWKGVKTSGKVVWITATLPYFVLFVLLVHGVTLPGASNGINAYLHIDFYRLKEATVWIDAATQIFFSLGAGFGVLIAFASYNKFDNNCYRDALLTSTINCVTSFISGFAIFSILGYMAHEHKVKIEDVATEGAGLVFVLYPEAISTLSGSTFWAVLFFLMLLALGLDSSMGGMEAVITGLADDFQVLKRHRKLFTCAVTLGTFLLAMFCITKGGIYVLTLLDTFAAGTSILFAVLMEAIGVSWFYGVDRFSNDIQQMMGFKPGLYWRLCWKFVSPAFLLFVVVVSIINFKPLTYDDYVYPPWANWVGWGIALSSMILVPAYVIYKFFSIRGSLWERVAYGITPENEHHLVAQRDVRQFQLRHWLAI
T1 sequence (P31652 whole entry): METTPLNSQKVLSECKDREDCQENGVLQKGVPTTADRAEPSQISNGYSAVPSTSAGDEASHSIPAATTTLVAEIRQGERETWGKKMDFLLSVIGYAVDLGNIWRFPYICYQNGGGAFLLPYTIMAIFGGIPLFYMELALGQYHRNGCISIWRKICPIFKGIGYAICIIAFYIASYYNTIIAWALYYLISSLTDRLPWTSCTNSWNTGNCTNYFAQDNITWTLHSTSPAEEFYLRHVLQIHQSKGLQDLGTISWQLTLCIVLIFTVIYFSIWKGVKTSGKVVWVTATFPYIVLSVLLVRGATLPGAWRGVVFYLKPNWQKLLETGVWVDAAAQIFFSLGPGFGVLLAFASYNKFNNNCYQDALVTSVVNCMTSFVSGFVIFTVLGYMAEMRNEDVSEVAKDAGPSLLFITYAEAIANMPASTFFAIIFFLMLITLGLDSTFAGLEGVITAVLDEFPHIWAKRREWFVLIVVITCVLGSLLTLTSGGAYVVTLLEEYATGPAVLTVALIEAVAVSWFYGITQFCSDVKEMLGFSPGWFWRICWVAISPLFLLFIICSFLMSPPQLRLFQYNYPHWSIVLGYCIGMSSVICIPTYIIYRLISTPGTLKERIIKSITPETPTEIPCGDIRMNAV

CNCCC(Oc1ccc(C(F)(F)F)cc1)c1ccc([125I])cc1 (racemic) [Compound 15, iodo-fluoxetine]
regional distribution pattern in rat brain sections, effect of paroxetine pretreatment (rat brain sections): not altered by pretreatment of paroxetine | non-specific binding [1]: strong non-specific binding | initial brain uptake ([2]; 2 min.): 0.68 % dose/organ | brain retention ([2]; 8 hr.): 0.63 % dose/organ | Biodistribution, Blood ([2]; 2 min.): 3.03 ± 0.40 % dose/organ | Biodistribution, Brain ([2]; 2 min.): 0.61 ± 0.12 % dose/organ | Biodistribution, Heart ([2]; 2 min.): 2.27 ± 0.31 % dose/organ | Biodistribution, Kidney ([2]; 2 min.): 4.16 ± 0.36 % dose/organ | Biodistribution, Liver ([2]; 2 min.): 15.92 ± 2.41 % dose/organ | Biodistribution, Lung ([2]; 2 min.): 11.09 ± 2.32 % dose/organ | Biodistribution, Muscle ([2]; 2 min.): 12.71 ± 5.3 % dose/organ | Biodistribution, Skin ([2]; 2 min.): 4.90 ± 0.50 % dose/organ | Biodistribution, Spleen ([2]; 2 min.): 0.61 ± 0.06 % dose/organ | Biodistribution, Thyroid ([2]; 2 min.): 0.10 ± 0.04 % dose/organ | Biodistribution, Blood ([2]; 15 min.): 1.71 ± 0.31 % dose/organ | Biodistribution, Brain ([2]; 15 min.): 0.68 ± 0.02 % dose/organ | Biodistribution, Heart ([2]; 15 min.): 1.14 ± 0.04 % dose/organ | Biodistribution, Kidney ([2]; 15 min.): 4.05 ± 0.44 % dose/organ | Biodistribution, Liver ([2]; 15 min.): 16.27 ± 2.35 % dose/organ | Biodistribution, Lung ([2]; 15 min.): 6.77 ± 0.25 % dose/organ | Biodistribution, Muscle ([2]; 15 min.): 16.01 ± 4.55 % dose/organ | Biodistribution, Skin ([2]; 15 min.): 5.84 ± 0.95 % dose/organ | Biodistribution, Spleen ([2]; 15 min.): 0.93 ± 0.15 % dose/organ | Biodistribution, Thyroid ([2]; 15 min.): 0.07 ± 0.03 % dose/organ | Biodistribution, Blood ([2]; 60 min.): 3.16 ± 0.36 % dose/organ | Biodistribution, Brain ([2]; 60 min.): 0.78 ± 0.01 % dose/organ | Biodistribution, Heart ([2]; 60 min.): 0.43 ± 0.05 % dose/organ | Biodistribution, Kidney ([2]; 60 min.): 2.32 ± 0.38 % dose/organ | Biodistribution, Liver ([2]; 60 min.): 17.64 ± 1.88 % dose/organ | Biodistribution, Lung ([2]; 60 min.): 7.32 ± 0.45 % dose/organ | Biodistribution, Muscle ([2]; 60 min.): 22.63 ± 4.48 % dose/organ | Biodistribution, Skin ([2]; 60 min.): 10.76 ± 2.85 % dose/organ | Biodistribution, Spleen ([2]; 60 min.): 1.20 ± 0.13 % dose/organ | Biodistribution, Thyroid ([2]; 60 min.): 0.08 ± 0.01 % dose/organ | Biodistribution, Blood ([2]; 120 min.): 3.62 ± 0.24 % dose/organ | Biodistribution, Brain ([2]; 120 min.): 0.84 ± 0.073 % dose/organ | Biodistribution, Heart ([2]; 120 min.): 0.48 ± 0.02 % dose/organ | Biodistribution, Kidney ([2]; 120 min.): 1.82 ± 0.21 % dose/organ | Biodistribution, Liver ([2]; 120 min.): 11.55 ± 0.78 % dose/organ | Biodistribution, Lung ([2]; 120 min.): 7.21 ± 0.36 % dose/organ | Biodistribution, Muscle ([2]; 120 min.): 24.22 ± 0.68 % dose/organ | Biodistribution, Skin ([2]; 120 min.): 10.08 ± 0.78 % dose/organ | Biodistribution, Spleen ([2]; 120 min.): 1.09 ± 0.07 % dose/organ | Biodistribution, Thyroid ([2]; 120 min.): 0.10 ± 0.02 % dose/organ | Biodistribution, Blood ([2]; 240 min.): 4.99 ± 0.70 % dose/organ | Biodistribution, Brain ([2]; 240 min.): 0.70 ± 0.031 % dose/organ | Biodistribution, Heart ([2]; 240 min.): 0.28 ± 0.01 % dose/organ | Biodistribution, Kidney ([2]; 240 min.): 1.18 ± 0.17 % dose/organ | Biodistribution, Liver ([2]; 240 min.): 11.52 ± 0.91 % dose/organ | Biodistribution, Lung ([2]; 240 min.): 7.57 ± 2.36 % dose/organ | Biodistribution, Muscle ([2]; 240 min.): 20.38 ± 2.67 % dose/organ | Biodistribution, Skin ([2]; 240 min.): 8.27 ± 0.75 % dose/organ | Biodistribution, Spleen ([2]; 240 min.): 0.71 ± 0.11 % dose/organ | Biodistribution, Thyroid ([2]; 240 min.): 0.14 ± 0.001 % dose/organ | Biodistribution, Blood ([2]; 480 min.): 7.61 ± 1.11 % dose/organ | Biodistribution, Brain ([2]; 480 min.): 0.61 ± 0.07 % dose/organ | Biodistribution, Heart ([2]; 480 min.): 0.32 ± 0.03 % dose/organ | Biodistribution, Kidney ([2]; 480 min.): 1.11 ± 0.06 % dose/organ | Biodistribution, Liver ([2]; 480 min.): 16.47 ± 2.03 % dose/organ | Biodistribution, Lung ([2]; 480 min.): 5.00 ± 0.46 % dose/organ | Biodistribution, Muscle ([2]; 480 min.): 19.90 ± 2.61 % dose/organ | Biodistribution, Skin ([2]; 480 min.): 10.78 ± 0.07 % dose/organ | Biodistribution, Spleen ([2]; 480 min.): 0.52 ± 0.048 % dose/organ | Biodistribution, Thyroid ([2]; 480 min.): 0.22 ± 0.06 % dose/organ | initial heart uptake ([2]; rats, 2 min. post injection): 2.3% | heart uptake ([2]; rats, 8 hr. post injection): 0.3%

CN[C@@H]1C[C@H](c2ccc(Cl)c(Cl)c2)c2ccccc21 (relative stereo) [Indatraline cis, Indatraline]
Ki [3]: 34 nM | Ki [4]: 860 nM | Ki [5]: 0.03 nM

CN[C@@H]1C[C@@H](c2ccc(Cl)c(Cl)c2)c2ccccc21 (relative stereo) [Indatraline trans, Indatraline]
Ki [3]: 90 nM | Ki [4]: 2000 nM | Ki [5]: 0.58 nM

CNCC[C@@H](Oc1cccc(I)c1)c1ccccc1 [Compound 4, [R]-(-)-N-Methyl-3-phenyl-3-(3-iodophenoxy)propylamine]
IC50 [6]: 500 nM | Ki (serotonin reuptake sites): 0.8 nM

CNCC[C@@H](Oc1ccc(I)cc1C)c1ccccc1.Cl [Compound 7, [R]-(-)-N-Methyl-3-phenyl-3-(4-iodo-2-methylphenoxy)propylamine hydrochloride]
Biodistribution, Blood [7, 8]: 2.19 ± 0.32 % dose/organ | Biodistribution, Brain [7, 8]: 0.80 ± 0.04 % dose/organ | Biodistribution, Heart [7, 8]: 0.55 ± 0.04 % dose/organ | Biodistribution, Kidney [7, 8]: 2.70 ± 0.48 % dose/organ | Biodistribution, Lung [7, 8]: 9.36 ± 1.52 % dose/organ | Biodistribution, Skin [7, 8]: 6.75 ± 1.35 % dose/organ | Biodistribution, Spleen [7, 8]: 1.09 ± 0.32 % dose/organ | Biodistribution, Thyroid [7, 8]: 0.07 ± 0.02 % dose/organ | Biodistribution, Blood [7, 9]: 2.39 ± 0.33 % dose/organ | Biodistribution, Brain [7, 9]: 0.68 ± 0.01 % dose/organ | Biodistribution, Kidney [7, 9]: 1.12 ± 0.44 % dose/organ | Biodistribution, Lung [7, 9]: 6.81 ± 0.76 % dose/organ | Biodistribution, Skin [7, 9]: 6.92 ± 0.83 % dose/organ | Biodistribution, Spleen [7, 9]: 0.79 ± 0.05 % dose/organ | brain uptake ([7]; throughout the two hour period): 0.64-0.84 % dose/organ | IC50 [6]: 20 nM | Ki (serotonin reuptake sites): 5 nM
